In brackets after ≈: the same amount, converted by molar mass. Where two headings read alike, the source gives them in different places.
What was measured:
A2780 = experiment: Chemosensitivity, one hour drug exposure, MTT assay, monolayer; assay type: cell-based, human
Text: (§1) Cell culture and chemosensitivity studies. […] H460 (human NSCLC) cell line was obtained from the American Type Culture Collection (ATCC). HT-29 (human colon carcinoma), RT112/83 (human bladder carcinoma epithelial), EJ138 (human bladder carcinoma) and T24/83 (human bladder transitional cell carcinoma) cell lines were obtained from the European Collection of Animal Cell Cultures (ECACC). A2780 (human ovarian carcinoma) and BE (human colon carcinoma) cells were gifts from Dr T Ward (Paterson Institute, Manchester, UK). All cell lines were maintained as monolayer cultures in RPNII 1640 culture medium supplemented with fetal calf serum (10%), sodium pyruvate (2 mM), L-glutamine (2 mM), penicillin/streptomycin (50 IU/ml/50 jug/ml) and buffered with HEPES (25 mK). All cell culture materials were purchased from Gibco BRL (Paisley, UK). […] Calibration curves were conducted over a broad range of pH values in culture medium (pH 3.5 to 11) and the stability of the pH conditions monitored over a one hour incubation period at 37° C.

BE = experiment: as above; assay type: cell-based, human
Text: as §1

EJ138 = experiment: as above; assay type: cell-based, human
Text: as §1

H460 = experiment: as above; assay type: cell-based, human
Text: as §1

HT-29 = experiment: as above; assay type: cell-based, human
Text: as §1

RT112 = experiment: as above; assay type: cell-based, human
Text: as §1

T24/83 = experiment: as above; assay type: cell-based, human
Text: as §1

H460 cells = experiment: Response of H460 cells to EO9 in the presence or absence of FAA (2 mM); assay type: cell-based, human; conditions: for IC50: Homo sapiens, NCI-H460, H460 cells
Procedure: Briefly, H460 cells (NQO1 rich) were plated into 96 well plates at a density of 2×10^3 cells per well. Following an overnight incubation at 37° C., medium was replaced with fresh medium (pH 7.4) containing a non-toxic concentration of FAA (2 mM) and incubated for one hour at 37° C. Medium was then replaced with fresh medium containing EO9 (range of drug concentrations) and FAA (2 mM) at either pHe 7.4 or 6.0. Following a further one hour incubation at 37° C., cells were washed twice with HBSS and incubated at 37° C. in growth medium for five days. Chemosensitivity was determined by the NM assay as described above and results were expressed in terms of IC50 values, selectivity ratios (IC50 at pHe 7.4/IC50 at pHe 6.0) and protection ratios (ICSO FAA/EO9 combinations/IC50 for EO9 alone).

[1] = system: HT-29 multicell spheroids; experiment: Chemosensitivity of HT-29 multicell spheroids; assay type: cell-based, human; conditions: for IC50: Homo sapiens, HT-29, 1 h, spheroids
Procedure: HT-29 multicell spheroids were prepared by seeding 5×10^5 cells into T25 flasks which had been based coated with agar (1% w/v) and incubated for 24 h at 37° C. Immature spheroids were then transferred to a spinner flask (Techne) containing 250 ml of RPMI 1640 growth medium and spheroids were kept in suspension by stirring at 50 rpm. When spheroids reached a diameter of approximately 500 Am, they were harvested for chemosensitivity studies. Multicell spheroids were exposed to a range of EO9 concentrations at pHe 6.0 and 7.4 for one hour at 37° C. Following drug incubation, spheroids were washed twice in HBSS prior to dissagregation into single cells using trypsin EDTA. Disaggregated spheroids were then washed in HBSS and then plated into 96 well plates (1×10^3 cells per well) and incubated at 37° C. for four days. Chemosensitivity was assessed using the NM assay as described elsewhere (Phillips et al, 1992).

recombinant human NQO1 = target: T1, recombinant human NQO1 (Homo sapiens, UniProt P15559); experiment: Substrate specificity: reduction of EO9 by NQO1, cytochrome c reporter; assay type: biochemical
T1 construct: made in house; host or cells: E. coli (pKK233-2 plasmid, IPTG induction)
T1 sequence (P15559 whole entry): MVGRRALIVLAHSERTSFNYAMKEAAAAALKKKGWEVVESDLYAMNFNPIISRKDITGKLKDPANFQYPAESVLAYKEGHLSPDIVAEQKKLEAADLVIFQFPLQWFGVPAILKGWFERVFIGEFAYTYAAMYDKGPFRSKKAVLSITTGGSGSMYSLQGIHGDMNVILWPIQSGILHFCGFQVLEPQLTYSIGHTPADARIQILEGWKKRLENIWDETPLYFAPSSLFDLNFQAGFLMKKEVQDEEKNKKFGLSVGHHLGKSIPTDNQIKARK
Procedure: Substrate specificity. The influence of acidic pHe on substrate specificity for purified human NQ01 was determined as described previously (Phillips 1996, Walton et al, 1991). NQ01 mediated reduction of the quinone to the hydroquinone species is difficult to detect by conventional assays thereby necessitating the use of a reporter signal generating step. In this assay, the hydroquinone acts as an intermediate electron acceptor which subsequently reduces cytochrome c which can readily be detected spectrophotometrically. Recombinant human NQ01 was derived from E. coli transformed with the pKK233-2 expression plasmid containing the full length cDNA sequence for human NQ01 isolated from the (Beall et al, 1994). Following IPTG induction, NQO1 was purified by cybacron blue affinity chromatography, details of which are described elsewhere (Phillips, 1996). […] Reduction of EO9 by recombinant human NQO1 was determined at pH 6.0 and 7.4 by measuring the rate of reduction of cytochrome c was measured at 550 nm on a Beckman DU 650 spectrophotometer according to previously published methods (Phillips, 1996).

[2] = in humans; cited from earlier work
[3] = phase I clinical trials; cited from earlier work
[4] = system: NSCLC, gastric, breast, pancreatic and colon cancers; conditions: phase II trials; cited from earlier work
[5] = system: NQ01 rich and deficient tumors; conditions: intratumoural administration; cited from earlier work
[6] = Stability of EO9 at acidic pH; conditions: buffer
[7] = Solubility of EO9 in formulation vehicle and water
histocultures = conditions: cited from earlier work

Cn1c(/C=C/CO)c(CO)c2c1C(=O)C=C(N1CC1)C2=O [EO9, 5-(1-aziridinyl)-3-(hydroxymethyl)-2-[(E)-3-hydroxyprop-1-enyl]-1-methyl-1H-indole-4,7-dione]
SR (selectivity ratio) = IC50 at pH 7.4/IC50 at pH 6.0 (A2780; A2780): 3.92
IC50 (A2780; Homo sapiens, A2780, 1 h, read-out: IC50 pHe 6.0): 0.051 ± 0.014 µM
IC50 (A2780; Homo sapiens, A2780, 1 h, read-out: IC50 pHe 7.4): 0.2 ± 0.05 µM
SR (selectivity ratio) = IC50 at pH 7.4/IC50 at pH 6.0 (BE; BE): 4.07
IC50 (BE; Homo sapiens, 1 h, read-out: IC50 pHe 6.0): 1.3 ± 0.075 µM
IC50 (BE; Homo sapiens, 1 h, read-out: IC50 pHe 7.4): 5.3 ± 0.169 µM
SR (selectivity ratio) = IC50 at pH 7.4/IC50 at pH 6.0 (EJ138; EJ138): 7.94
IC50 (EJ138; Homo sapiens, EJ138, 1 h, read-out: IC50 pHe 6.0): 0.039 ± 0.007 µM
IC50 (EJ138; Homo sapiens, EJ138, 1 h, read-out: IC50 pHe 7.4): 0.31 ± 0.095 µM
SR (selectivity ratio) = IC50 at pH 7.4/IC50 at pH 6.0 (H460; H460): 6.31
IC50 (H460; Homo sapiens, NCI-H460, 1 h, read-out: IC50 pHe 6.0): 0.0095 ± 0.002 µM
IC50 (H460; Homo sapiens, NCI-H460, 1 h, read-out: IC50 pHe 7.4): 0.06 ± 0.01 µM
SR (selectivity ratio) = IC50 at pH 7.4/IC50 at pH 6.0 (HT-29; HT-29): 4.13
IC50 (HT-29; Homo sapiens, HT-29, 1 h, read-out: IC50 pHe 6.0): 0.029 ± 0.01 µM
IC50 (HT-29; Homo sapiens, HT-29, 1 h, read-out: IC50 pHe 7.4): 0.12 ± 0.053 µM
IC50 (RT112; Homo sapiens, RT-112, 1 h, read-out: IC50 pHe 6.0): 0.061 ± 0.013 µM
IC50 (RT112; Homo sapiens, RT-112, 1 h, read-out: IC50 pHe 7.4): 1.05 ± 0.075 µM
SR (selectivity ratio) = IC50 at pH 7.4/IC50 at pH 6.0 (RT112; RT112): 17.21
IC50 (T24/83; Homo sapiens, T24/83, 1 h, read-out: IC50 pHe 6.0): 0.06 ± 0.018 µM
IC50 (T24/83; Homo sapiens, T24/83, 1 h, read-out: IC50 pHe 7.4): 0.29 ± 0.065 µM
SR (selectivity ratio) = IC50 at pH 7.4/IC50 at pH 6.0 (T24/83; T24/83): 4.83
SR = Selectivity Ratio, IC50 at pHe 7.4 divided by IC50 at pHe 6.0 (H460 cells; H460 cells, with or without FAA 2 mM): 6.31
IC50 (H460 cells; pHe 6.0, with or without FAA 2 mM): 0.0095 ± 0.0026 µM
IC50 (H460 cells; pHe 7.4, with or without FAA 2 mM): 0.06 ± 0.0081 µM
ratio of IC50 values for spheroids to monolayers ([1]; HT-29, pHe 6.0): 341
ratio of IC50 values for spheroids to monolayers ([1]; HT-29, pHe 7.4): 202
IC50 ([1]; pHe 6.0, one hour exposure): 9.89 ± 0.89 µM
IC50 ([1]; pHe 7.4, one hour exposure): 24.2 ± 3.29 µM
cells killed in spheroids ([1]; at higher doses): > 90%
rate of reduction of EO9 by purified human NQO1 (recombinant human NQO1; pH 6.0): 21.30±1.50 nmol cytochrome c reduced/min/mg protein
specific activity, cytochrome c reduced/min/mg protein (recombinant human NQO1; pH 6.0): 21.30±1.5 pmol cytochrome c reduced/min/mg protein
rate of reduction of EO9 by purified human NQO1 (recombinant human NQO1; pH 7.4): 21.10±2.30 nmol cytochrome c reduced/min/mg protein
specific activity, cytochrome c reduced/min/mg protein (recombinant human NQO1; pH 7.4): 21.10±2.3 pmol cytochrome c reduced/min/mg protein
plasma elimination half-life [2]: 10 min
clinical response [3]: three partial remissions
clinical activity [4]: no activity
tumor growth delay [5]: significant growth delays
half-life ([6]; pH 5.5): 37 min
half-life ([6]; pH 6): 150 min
solubility ([7]; tert-butanol formulation vehicle, aqueous with cosolvent or surfactant or cyclodextrin): ≥ 9500 µg/mL
solubility ([7]; water): ~200 µg/mL (≈ 694 µM)

CO[C@@]12[C@H](COC(N)=O)C3=C(C(=O)C(C)=C(N)C3=O)N1C[C@@H]1N[C@@H]12 [MMC, Mitomycin C, reference compound]
IC50 (A2780; A2780, pHe 6.0, one hour exposure, read-out: IC50 pHe 6.0): 1.4 ± 0.13 µM
IC50 (A2780; A2780, pHe 7.4, one hour exposure, read-out: IC50 pHe 7.4): 2.4 ± 0.34 µM
IC50 (BE; BE, pHe 6.0, one hour exposure, read-out: IC50 pHe 6.0): 4.4 ± 0.215 µM
IC50 (BE; BE, pHe 7.4, one hour exposure, read-out: IC50 pHe 7.4): 7 ± 0.192 µM
IC50 (EJ138; EJ138, pHe 6.0, one hour exposure, read-out: IC50 pHe 6.0): 1.4 ± 0.25 µM
IC50 (EJ138; EJ138, pHe 7.4, one hour exposure, read-out: IC50 pHe 7.4): 1.6 ± 0.2 µM
IC50 (H460; H460, pHe 6.0, one hour exposure, read-out: IC50 pHe 6.0): 0.22 ± 0.13 µM
IC50 (H460; H460, pHe 7.4, one hour exposure, read-out: IC50 pHe 7.4): 0.9 ± 0.2 µM
IC50 (HT-29; HT-29, pHe 6.0, one hour exposure, read-out: IC50 pHe 6.0): 0.5 ± 0.24 µM
IC50 (HT-29; HT-29, pHe 7.4, one hour exposure, read-out: IC50 pHe 7.4): 1.05 ± 0.21 µM
IC50 (RT112; RT112, pHe 6.0, one hour exposure, read-out: IC50 pHe 6.0): 2 ± 0.5 µM
IC50 (RT112; RT112, pHe 7.4, one hour exposure, read-out: IC50 pHe 7.4): 3.35 ± 0.25 µM
IC50 (T24/83; T24/83, pHe 6.0, one hour exposure, read-out: IC50 pHe 6.0): 2.1 ± 0.8 µM
IC50 (T24/83; T24/83, pHe 7.4, one hour exposure, read-out: IC50 pHe 7.4): 2.15 ± 0.093 µM
difference in toxicity between physiological and acidic pHe (histocultures): no difference in toxicity

Source: patent US7977369B2, “Medical compositions for intravesical treatment of bladder cancer” (Spectrum Pharmaceuticals, Inc., priority 2001, dated 2011)
